The values below come from patent US20150315211A1, “SMALL MOLECULES FOR THE MODULATION OF MCL-1 AND METHODS OF MODULATING CELL DEATH, CELL DIVISION, CELL DIFFERENTIATION AND METHODS OF TREATING DISORDERS” (priority 2010, published 2015).

The target in one test is BCL-XLΔC (Homo sapiens, UniProt Q07817). As to the kind of experiment: High-throughput competitive FP binding screen, FITC-BAD BH3/BCL-XLΔC interaction.
In test [1] the test system is MCL-1ΔNΔC. As to the kind of experiment: High-throughput competitive FP binding screen, FITC-MCL-1 SAHB/MCL-1ΔNΔC interaction.
Test [2] deals with MCL-1ΔNΔC (Homo sapiens, UniProt Q07820). The description is as above. On the set-up: the C-terminal alpha-helix was deleted from each of these constructs; GST (N, cleaved yes); made in house.
MCL-1ΔNΔC (Homo sapiens, UniProt Q07820), sequence (Q07820 172-320 limits assumed, stated change not applied): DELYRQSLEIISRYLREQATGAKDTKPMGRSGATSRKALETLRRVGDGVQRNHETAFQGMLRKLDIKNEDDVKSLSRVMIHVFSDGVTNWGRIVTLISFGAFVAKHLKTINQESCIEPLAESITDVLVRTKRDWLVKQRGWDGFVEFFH
[3] abbreviates: FITC-BAD BH3/BCL-XLΔC interaction pair, competitive FP screen.
[4] abbreviates: selectivity for MCL-1ΔNΔC over BCL-XLΔC targeting (BCL-XL % Bound minus MCL-1 % Bound).
The mark [5] stands for this setting: FITC-MCL-1 SAHB/MCL-1ΔNΔC interaction pair, competitive FP screen.

Like-named read-outs stand apart in the source and are kept apart here.

BCL-XLΔC, sequence (Q07817 1-212 limits assumed, stated change not applied): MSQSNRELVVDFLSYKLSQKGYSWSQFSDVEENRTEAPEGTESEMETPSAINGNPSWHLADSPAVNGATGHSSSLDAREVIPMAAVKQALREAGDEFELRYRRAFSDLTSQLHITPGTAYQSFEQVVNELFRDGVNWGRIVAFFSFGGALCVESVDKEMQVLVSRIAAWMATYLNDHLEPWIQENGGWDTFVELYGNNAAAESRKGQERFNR

As to `Cc1cc2c(C(C)C)c(O)c(O)c(C=O)c2c(O)c1-c1c(C)cc2c(C(C)C)c(O)c(O)c(C=O)c2c1O.[Na+].[Na+]`, the “BCL-XL % Bound” value on BCL-XLΔC stood at 101%. For the same compound, the “Spec Values” in the test on MCL-1ΔNΔC [1] was 97.07. At MCL-1ΔNΔC [2], the “MCL-1% Bound” value worked out at 3.955%.
Consider `O=C(/C=C/c1ccco1)Nc1ccc(Br)cc1`, for which the “BCL-XL % Bound” value on BCL-XLΔC (setting [3]) is 96.9%. The “Spec Values” with MCL-1ΔNΔC [1] (setting [4]) amounted to 48.95. For the same compound, the “MCL-1% Bound” value on MCL-1ΔNΔC [2] (setting [5]) is recorded as 47.95%.
For `Cc1cc(NC(=O)/C=C/c2ccco2)n(-c2nc3ccccc3n2Cc2cccc(Oc3ccccc3)c2)n1`, the “BCL-XL % Bound” value at BCL-XLΔC (setting [3]) was 104.4%. For the same compound, in the test on MCL-1ΔNΔC [1] (setting [4]), the “Spec Values” was found to be 48.1. Further, the “MCL-1% Bound” value at MCL-1ΔNΔC [2] (setting [5]) stood at 56.33%.
For `Cc1ccc(/C=C/C(=O)N2CCN(C(c3ccccc3)c3ccccc3)CC2)o1` the same measures were 103.2%, 48.08 and 55.15%.
For `O=C(/C=C/c1ccco1)Nc1ccc2ccccc2c1` the same measures were 112.7%, 48.07 and 64.64%.
Taken in the same sequence, the figures for `Cc1ccc(/C=C2\C(=O)N(c3ccccc3)c3ccccc32)o1` were 110.1%, 47.36 and 62.72%.
With `COc1ccc(-c2nc3scc(CCNC(=O)/C=C/c4ccco4)n3n2)cc1`, at BCL-XLΔC (setting [3]), the “BCL-XL % Bound” value was determined as 86.75%. Moreover, the “Spec Values” in the test on MCL-1ΔNΔC [1] (setting [4]) is recorded as 46.24. Besides, the “MCL-1% Bound” value at MCL-1ΔNΔC [2] (setting [5]) was 40.51%.
Taken in the same sequence, the figures for `O=C(/C=C/c1ccco1)Nc1cccc(-c2nc3ccccc3o2)c1` were 112%, 45.91 and 66.09%.
For `O=C(/C=C/c1ccco1)NCc1ccccc1` the same measures were 101.8%, 45.66 and 56.1%.
For `CN(Cc1ccc(-c2ccc(Br)cc2)o1)C(=O)c1ccc(S(N)(=O)=O)cc1` the same measures were 115.2%, 45.66 and 69.53%.
On to `Cc1ccc(CN(C)C(=O)c2ccccc2OCCOc2ccccc2)o1`, for which the “BCL-XL % Bound” value at BCL-XLΔC (setting [3]) worked out at 114.2%. Besides, the “Spec Values” in the test on MCL-1ΔNΔC [1] (setting [4]) came to 45.38. In addition, the “MCL-1% Bound” value on MCL-1ΔNΔC [2] (setting [5]) is recorded as 68.8%.
For the compound `CC1CCN(C2=NN3C(=N)C(Cc4ccc(SCc5ccco5)o4)C(=O)N=C3S2)CC1` (stereo not shown), on BCL-XLΔC (setting [3]), the “BCL-XL % Bound” value is reported as 84.68%. In addition, the “Spec Values” with MCL-1ΔNΔC [1] (setting [4]) stood at 70.38. Further, the “MCL-1% Bound” value on MCL-1ΔNΔC [2] (setting [5]) came to 14.3%.
Taken in the same sequence, the figures for `Cc1ccccc1OCC1=NN2C(=N)/C(=C\c3cccn3-c3cccc(Cl)c3)C(=O)N=C2S1` were 92.89%, 67.61 and 25.28%.
As for `Cc1ccccc1OCC1=NN2C(=N)/C(=C\c3ccc(SCc4ccco4)o3)C(=O)N=C2S1`, the “BCL-XL % Bound” value on BCL-XLΔC (setting [3]) is 73.83%. The “Spec Values” in the test on MCL-1ΔNΔC [1] (setting [4]) was determined as 54.65. Further, at MCL-1ΔNΔC [2] (setting [5]), the “MCL-1% Bound” value stood at 19.18%.
For the compound `CS(=O)(=O)C1=NN2C(=N)/C(=C\c3ccc(-c4ccc(Cl)cc4)o3)C(=O)N=C2S1`, the “BCL-XL % Bound” value at BCL-XLΔC (setting [3]) was found to be 82.61%. For the same compound, the “Spec Values” in the test with MCL-1ΔNΔC [1] (setting [4]) came out at 49.33. The “MCL-1% Bound” value on MCL-1ΔNΔC [2] (setting [5]) is given as 33.28%.
For `CCCCSC1=C(C#N)C(=O)NC(c2ccc(OC)cc2)S1` (stereo not shown) the same measures were 99.33%, 74.73 and 24.59%.
For `CCCCSC1=C(C#N)C(=O)NC(c2ccco2)S1` (stereo not shown) the same measures were 92.91%, 73.94 and 18.96%.
As for `CCSC1=C(C#N)C(=O)NC(c2ccc(O)cc2)S1` (stereo not shown), the “BCL-XL % Bound” value at BCL-XLΔC (setting [3]) is given as 84.82%. The “Spec Values” in the test with MCL-1ΔNΔC [1] (setting [4]) is on record as 69.65. Besides, the “MCL-1% Bound” value on MCL-1ΔNΔC [2] (setting [5]) amounted to 15.17%.
Taken in the same sequence, the figures for `CCSC1=C(C#N)C(=O)NC(c2ccc(N(C)C)cc2)S1` (stereo not shown) were 79.68%, 49.2 and 30.49%.
For the compound `CCCOC(=O)c1cc(-c2ccc(/C=C3\C(=O)NC(=O)C(C#N)=C3C)o2)ccc1Cl`, the “BCL-XL % Bound” value at BCL-XLΔC (setting [3]) is given as 87.16%. Besides, the “Spec Values” in the test with MCL-1ΔNΔC [1] (setting [4]) is reported as 97.76. Besides, on MCL-1ΔNΔC [2] (setting [5]), the “MCL-1% Bound” value is given as −10.6%.
For `CC1=C(C#N)C(=O)N(CCc2ccccc2)C(=O)/C1=C/c1ccc(-c2ccc(S(N)(=O)=O)cc2)o1` the same measures were 97.35%, 90.31 and 7.037%.
For `CC1=C(C#N)C(=O)N(C)C(=O)/C1=C/c1ccc(-c2cccc(Cl)c2C)o1` the same measures were 86.24%, 82.88 and 3.369%.
Turning to `CCCOC(=O)c1cc(-c2ccc(/C=C3\C(=O)N(CCCO)C(=O)C(C#N)=C3C)o2)ccc1Cl`, at BCL-XLΔC (setting [3]), the “BCL-XL % Bound” value amounted to 75.5%. For the same compound, in the test with MCL-1ΔNΔC [1] (setting [4]), the “Spec Values” turned out to be 82.57. Also, the “MCL-1% Bound” value on MCL-1ΔNΔC [2] (setting [5]) is recorded as −7.072%.
For `CCCN1C(=O)C(C#N)=C(C)/C(=C\c2ccc(-c3ccc(Br)cc3)o2)C1=O` the same measures were 102.2%, 81.6 and 20.59%.
For `CC1=C(C#N)C(=O)N(CC(C)O)C(=O)/C1=C/c1ccc(-c2ccc(C(=O)OC(C)C)cc2)o1` (stereo not shown) the same measures were 107.7%, 77.49 and 30.2%.
For `CC1=C(C#N)C(=O)N(CC(C)O)C(=O)/C1=C/c1ccc(-c2ccc(Cl)cc2)o1` (stereo not shown) the same measures were 89.37%, 74.32 and 15.04%.
`C=CCN1C(=O)C(C#N)=C(C)/C(=C\c2ccc(-c3cccc(C(=O)O)c3)o2)C1=O`: the “BCL-XL % Bound” value on BCL-XLΔC (setting [3]) came to 89.24%. The “Spec Values” in the test with MCL-1ΔNΔC [1] (setting [4]) was 57.81. The “MCL-1% Bound” value on MCL-1ΔNΔC [2] (setting [5]) worked out at 31.43%.
For `CC1=C(C#N)C(=O)N(CCc2ccccc2)C(=O)/C1=C/c1ccc(-c2ccc3c(c2)COC3=O)o1` the same measures were 84.79%, 53.97 and 30.81%.
`C=CCN1C(=O)/C(=C\c2ccc(OC)cc2)C(=O)NC1=S`: the “BCL-XL % Bound” value at BCL-XLΔC was found to be 95.09%. The “Spec Values” with MCL-1ΔNΔC [1] is recorded as 76. Moreover, the “MCL-1% Bound” value at MCL-1ΔNΔC [2] is on record as 19.08%.
Taken in the same sequence, the figures for `CCN1C(=O)C(=Cc2ccc(O)c(I)c2)C(=O)N(CC)C1=S` were 100.4%, 61.04 and 39.32%.
For `C=CCN1C(=O)/C(=C\c2ccc(N(CC)CC)cc2)C(=O)NC1=S` the same measures were 102.2%, 60.35 and 41.82%.
Taken in the same sequence, the figures for `Cc1sc(-n2c(C)cc(C=C3C(=O)NC(=S)NC3=O)c2C)c(C#N)c1C` were 102%, 56.82 and 45.2%.
With `CCOc1cc(C=C2C(=O)N(C)C(=S)N(C)C2=O)ccc1OC(C)C(=O)O` (stereo not shown), on BCL-XLΔC, the “BCL-XL % Bound” value was determined as 98.2%. Moreover, in the test with MCL-1ΔNΔC [1], the “Spec Values” was determined as 56.22. Further, the “MCL-1% Bound” value on MCL-1ΔNΔC [2] is recorded as 41.99%.
For `CCN1C(=O)C(=Cc2cccn2C)C(=O)N(CC)C1=S` the same measures were 105.7%, 53.66 and 52.01%.
For `CSc1ncc(/C=C2/C(=O)NC(=O)N(C3CCCCC3)C2=O)cn1` the same measures were 99%, 52.58 and 46.42%.
Taken in the same sequence, the figures for `O=C1NC(=O)C(=Cc2ccc(Sc3ccc(Cl)cc3)o2)C(=O)N1` were 92.22%, 52.25 and 39.96%.
For the compound `O=C1NC(=O)N(CCc2ccc(F)cc2)C(=O)/C1=C\c1ccc(O)c(O)c1`, the “BCL-XL % Bound” value at BCL-XLΔC stood at 81.34%. Further, the “Spec Values” in the test with MCL-1ΔNΔC [1] was determined as 50.75. Also, on MCL-1ΔNΔC [2], the “MCL-1% Bound” value turned out to be 30.59%.
With `C=CCN1C(=O)/C(=C\c2ccc(N3CCOCC3)cc2C)C(=O)NC1=S`, on BCL-XLΔC, the “BCL-XL % Bound” value amounted to 82.66%. Further, the “Spec Values” with MCL-1ΔNΔC [1] was found to be 49.65. The “MCL-1% Bound” value at MCL-1ΔNΔC [2] was 33.01%.
Taken in the same sequence, the figures for `Cc1ccccc1C=C1C(=O)N(C)C(=S)N(C)C1=O` were 99.22%, 48.03 and 51.19%.
Taken in the same sequence, the figures for `CCc1ccc(C=C2C(=O)N(C)C(=S)N(C)C2=O)cc1` were 100.9%, 45.4 and 55.45%.
Taken in the same sequence, the figures for `O=C(O)C(Cc1ccccc1)N1C(=O)/C(=C/C=C/c2ccco2)SC1=S` (stereo not shown) were 87.83%, 97.44 and −9.611%.
As for `Nc1c(C(=O)NCc2ccco2)c2nc3ccccc3nc2n1CCc1ccccc1F`, the “BCL-XL % Bound” value at BCL-XLΔC is 99.9%. In addition, in the test on MCL-1ΔNΔC [1], the “Spec Values” came out at 93.2. Further, the “MCL-1% Bound” value at MCL-1ΔNΔC [2] is given as 6.6%.
For `O=c1c(O)c(-c2ccc(O)c(O)c2)oc2cc(O)cc(O)c12` [drawing 15], the “BCL-XL % Bound” value on BCL-XLΔC (setting [3]) turned out to be 105.3%. The “MCL-1% Bound” value on MCL-1ΔNΔC [2] (setting [5]) was found to be 16.69%.
As to `CC1=C(CC/C(C)=C/CCC2C=CC(C3=CC(=O)OC3O)OC2O)C(C)(C)CCC1` (stereo not shown) [drawing 17], the “Spec Values” with MCL-1ΔNΔC [1] is 71.82.
Regarding `CCOc1cc(C(Nc2cccnc2)c2ccc3cccnc3c2O)ccc1O` (stereo not shown) [drawing 35], the “MCL-1% Bound” value on MCL-1ΔNΔC [2] (setting [5]) is −0.3%.
On to `O=c1oc2c(O)c(O)cc3c(=O)oc4c(O)c(O)cc1c4c23` [drawing 165], for which the “Spec Values” with MCL-1ΔNΔC [1] (setting [4]) came out at 89.32. Further, the “MCL-1% Bound” value on MCL-1ΔNΔC [2] (setting [5]) worked out at 1.26%.
On to `CC1=C(CC/C(C)=C/CCC2C=CC(C3=CC(=O)OC3O)OC2O)C(C)(C)CCC1` (stereo not shown) [drawing 207], for which the “Spec Values” in the test on MCL-1ΔNΔC [1] amounted to 71.82.
